Data on 28 compounds can be found in patent US20230114241A1, “METHODS OF TREATING EPILEPSY USING THE SAME” (Trevena, Inc., priority 2019, published 2023).

Structures are written as SMILES.

human sphingosine-1-phosphate receptor 1 (S1P1), sequence (P21453 whole entry): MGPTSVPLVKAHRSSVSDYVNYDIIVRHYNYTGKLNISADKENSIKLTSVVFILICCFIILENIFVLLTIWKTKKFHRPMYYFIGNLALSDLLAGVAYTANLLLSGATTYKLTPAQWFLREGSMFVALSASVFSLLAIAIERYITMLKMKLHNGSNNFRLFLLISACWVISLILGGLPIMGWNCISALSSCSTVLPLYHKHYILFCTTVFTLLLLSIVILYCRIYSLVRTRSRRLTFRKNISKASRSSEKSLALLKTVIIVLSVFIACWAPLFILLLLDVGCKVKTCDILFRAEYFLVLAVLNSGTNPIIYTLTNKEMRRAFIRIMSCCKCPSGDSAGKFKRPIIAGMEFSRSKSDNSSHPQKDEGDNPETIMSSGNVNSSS

The target of one test is human sphingosine-1-phosphate receptor 1 (S1P1) (Homo sapiens, UniProt P21453). Description: Inhibition of cAMP production (HTRF cAMP HiRange), S1P1 CHO-K1 cells. Type of test: cell-based. The conditions noted are these: inhibition of cAMP production, S1P1; read-out: hS1P1 CAMP pEC50 (converted). The essentials:
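CHO-K1 cells co-expressing human S1P1 (C-terminal ProLink tag) and EA-β-arrestin2, plated overnight; after 30 min compound incubation at 37 °C, intracellular cAMP measured by HTRF TR-FRET following 1 h at room temperature. Values normalized to fingolimod.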
`CCC1(CC)CC(=O)c2cc(-c3nc(-c4ccc5sc(N)nc5c4)no3)ccc2O1` [Compound 446, 6-(3-(2-aminobenzo [d]thiazol-5-yl)-1,2,4-oxadiazol-5-yl)-2,2-diethylchroman-4-one]: the EC50 was over 316 nM.
Still for that read-out and setting: the same measure for `Cc1occc1-c1noc(-c2ccc3c(c2)nnn3CC(C)(C)O)n1` [Compound 492, 2-methyl-1-{5-[3-(2-methylfuran-3-yl)-1,2,4-oxadiazol-5-yl]-1H-1,2,3-benzotriazol-1-yl}propan-2-ol]: over 316 nM.
For the compound `Cc1nccnc1-c1nc(-c2ccc3c(c2)nnn3C(C)(C)CO)no1` [Compound 641, 2-methyl-2-(5-(5-(3-methyl-pyrazin-2-yl)-1,2,4-oxadiazol-3-yl)-1H-benzo[d][1,2,3]triazol-1-yl)propan-1-ol], the EC50 was over 316 nM.
In the case of `CC(=O)Nc1ccccc1-c1coc(-c2ccc3c(c2)nnn3C(C)C)n1` [Compound 458, N-(2-{2-[1-(propan-2-yl)-1H-1,2,3-benzotriazol-5-yl]-1,3-oxazol-4-yl}phenyl)acetamide], the EC50 was over 316 nM.
For the compound `CC(C)(O)Cn1nnc2cc(-c3nc(-c4ccc5nc[nH]c5c4)no3)ccc21` [Compound 501, 1-{5-[3-(1H-1,3-benzo-diazol-6-yl)-1,2,4-oxadiazol-5-yl]-1H-1,2,3-benzotriazol-1-yl}-2-methylpropan-2-ol], the EC50 is over 316 nM.
As to `COCCn1cc(-c2ccccc2C)cc1-c1ccc2c(c1)nnn2C(C)C` [Compound 534, 5-[1-(2-methoxyethyl)-4-(2-methylphenyl)-1H-pyrrol-2-yl]-1-(propan-2-yl)-1H-1,2,3-benzotriazole], the EC50 was over 316 nM.
As to `N#Cc1cc(-c2nnc(-c3ccc4[nH]cnc4c3)o2)ccc1NC1CC1` [Compound 598, 5-[5-(1H-1,3-benzo-diazol-5-yl)-1,3,4-oxadiazol-2-yl]-2-(cyclopropyl-amino)benzonitrile], the EC50 was under 316 nM.

The same test, now with this note: inhibition of cAMP production; potency; read-out: hS1P1 CAMP pEC50 (converted).
Take `CC1(C)CC(=O)c2cc(-c3nc(-c4cccnc4)no3)ccc2O1` [Compound 274, 2,2-dimethyl-6-[3-(pyridin-3-yl)-1,2,4-oxadiazol-5-yl]-3,4-dihydro-2H-1-benzopyran-4-one]: the EC50 was over 316 nM.
Regarding `Cc1ccccc1-c1noc(-c2ccc3c(c2)nnn3CC2CC2)n1` [Compound 288, 1-(cyclopropylmethyl)-5-[3-(2-methylphenyl)-1,2,4-oxadiazol-5-yl]-1H-1,2,3-benzotriazole], the EC50 was over 316 nM.
Same read-out and setting: the same measure for `COc1ccc(-c2cnc(-c3ccc4c(c3)nnn4C(C)C)s2)cc1` [Compound 109, 2-(1-isopropyl-1H-benzo[d][1,2,3]triazol-5-yl)-5-(4-methoxy-phenyl)thiazole]: over 316 nM; for `CC(C)n1nnc2cc(-c3nc(-c4ccc(OCc5ccccc5)c(C(F)(F)F)c4)no3)ccc21` [Compound 296, 5-{3-[4-(benzyloxy)-3-(trifluoromethyl)phenyl]-1,2,4-oxadiazol-5-yl}-1-(propan-2-yl)-1H-1,2,3-benzotriazole]: over 316 nM; for `COc1ccc(-c2nc(-c3ccc4c(c3)nnn4C3CCCC3)no2)cc1OC` [Compound 275, 3-(1-cyclopentyl-1H-benzo[d][1,2,3]triazol-5-yl)-5-(3,4-dimethoxyphenyl)-1,2,4-oxadiazole]: over 316 nM.
For `Cc1ncccc1-c1nc(-c2ccc3c(c2)nnn3C(C)C)no1` [Compound 194, 3-(1-isopropyl-1H-benzo[d][1,2,3]triazol-5-yl)-5-(2-methyl-pyridin-3-yl)-1,2,4-oxadiazole], the EC50 was over 316 nM.
On to `Cc1ccsc1-c1noc(-c2ccc3c(c2)nnn3CC(C)(C)O)n1` [Compound 140], for which the EC50 was under 316 nM.
`CC(C)n1nnc2cc(-c3noc(C4CCOCC4)n3)ccc21` [Compound 89, 5-[5-(oxan-4-yl)-1,2,4-oxadiazol-3-yl]-1-(propan-2-yl)-1H-1,2,3-benzotriazole]: the EC50 is over 316 nM.
On to `CC(C)n1nnc2cc(-c3noc(-c4ccc(C5CCCCC5)cc4)n3)ccc21` [Compound 290, 5-(4-cyclohexylphenyl)-3-(1-isopropyl-1H-benzo[d][1,2,3]triazol-5-yl)-1,2,4-oxadiazole], for which the EC50 was over 316 nM.
Consider `CC1(C)CCC2(CC1)CC(=O)c1cc(-c3nc(-c4ccncc4)no3)ccc1O2` [Compound 254, 4′,4′-dimethyl-6-[3-(pyridin-4-yl)-1,2,4-oxadiazol-5-yl]-3,4-dihydrospiro[1-benzopyran-2,1′-cyclohexane]-4-one], for which the EC50 was under 316 nM.
Turning to `COc1cc(C)c(-c2noc(-c3ccc4c(c3)nnn4C(C)C)n2)c(OC)c1` [Compound 136, 5-[3-(2,4-dimethoxy-6-methylphenyl)-1,2,4-oxadiazol-5-yl]-1-(propan-2-yl)-1H-1,2,3-benzotriazole], the EC50 is over 316 nM.
Still for that read-out and setting: the same measure for `N#Cc1cc(-c2nc(-c3ccc4c(c3)CC(=O)N4)no2)ccc1NCC1CC1` [Compound 210, 2-((cyclopropyl-methyl)amino)-5-(3-(2-oxoindolin-5-yl)-1,2,4-oxadiazol-5-yl)benzonitrile]: under 316 nM; for `CCC1(CC)CC(=O)c2cc(-c3nc(-c4ccccc4O)no3)ccc2O1` [Compound 187, 2,2-diethyl-6-[3-(2-hydroxyphenyl)-1,2,4-oxadiazol-5-yl]chroman-4-one]: over 316 nM; for `O=C(O)CCn1nnc2cc(-c3noc(-c4ccccc4Br)n3)ccc21` [Compound 134, 3-(5-(5-(2-bromophenyl)-1,2,4-oxadiazol-3-yl)-1H-benzo[d][1,2,3]triazol-1-yl)propanoic acid]: over 316 nM.
On to `CC(C)Oc1ccc(-c2nc(-c3ccc4c(c3)nnn4C3CCCC3)no2)cc1C(F)(F)F` [Compound 14, 3-(1-cyclopentyl-1H-benzo[d][1,2,3]triazol-5-yl)-5-(4-isopropoxy-3-(trifluoromethyl)phenyl)-1,2,4-oxadiazole], for which the EC50 was under 316 nM.
Turning to `Cc1ccccc1-c1noc(-c2ccc3nnn(C(C)C)c3c2)n1` [Compound 308, 6-[3-(2-methylphenyl)-1,2,4-oxadiazol-5-yl]-1-(propan-2-yl)-1H-1,2,3-benzotriazole], the EC50 is over 316 nM.
Consider `Cc1ccccc1-c1noc(-c2ccc3c(c2)nnn3C2CCCCC2)n1` [Compound 245, 1-cyclohexyl-5-[3-(2-methylphenyl)-1,2,4-oxadiazol-5-yl]-1H-1,2,3-benzotriazole], for which the EC50 was over 316 nM.
Same read-out and setting: with `CCC1(CC)CC(=O)c2cc(-c3nc(-c4ccc(NC)cc4)no3)ccc2O1` [Compound 153, 2,2-diethyl-6-(3-(4-(methylamino)phenyl)-1,2,4-oxadiazol-5-yl)chroman-4-one] the figure was over 316 nM; with `Cc1cc(C)cc(Cc2noc(-c3ccc4c(c3)nnn4C(C)C)n2)c1` [Compound 126, 5-{3-[(3,5-dimethyl-phenyl)methyl]-1,2,4-oxadiazol-5-yl}-1-(propan-2-yl)-1H-1,2,3-benzotriazole], over 316 nM.
With `COc1ccc(-c2noc(-c3ccc4c(c3)nnn4C3CCCC3)n2)c2ccccc12` [Compound 91, 1-cyclopentyl-5-[3-(4-methoxynaphthalen-1-yl)-1,2,4-oxadiazol-5-yl]-1H-1,2,3-benzotriazole], the EC50 was over 316 nM.
On to `FC(F)(F)c1cc(Br)ccc1-c1noc(-c2ccc3c(c2)nnn3C2CCCC2)n1` [Compound 114, 5-{3-[4-bromo-2-(trifluoromethyl)phenyl]-1,2,4-oxadiazol-5-yl}-1-cyclopentyl-1H-1,2,3-benzotriazole], for which the EC50 was over 316 nM.
